Data on eight compounds can be found in patent US11034650B2, “Compounds useful for treating a Mannheimia haemolytica or Histophilus somni infection” (Intervet Inc., priority 2016, dated 2021).

Values after ≈ are worked out from the molar mass of the structure shown. Where only a bound is given, the exact number is not on record here.

Common to all, as to type: cell-based
Experiment [1] deals with Mannheimia haemolytica MH 6357 (M7/2, reference strain, cattle infection strain). Briefly: MIC, broth-microdilution (CLSI VET01-A4), strain MH 6357. The following applies: Mannheimia haemolytica strain MH 6357, broth-microdilution; unit assumed. An outline of the steps: (§1)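 Broth microdilution per CLSI VET01-A4, using trays with a doubling dilution series of compound; results interpreted per CLSI VET01-S3. MIC taken as lowest concentration with no turbidity visible to the unaided eye.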
(Broth dilution looks for growth in wells or tubes with falling amounts of substance.)

Experiment [2] has as its system Mannheimia haemolytica MH 6374 (ATCC 33396, reference strain). Briefly: MIC, broth-microdilution (CLSI VET01-A4), strain MH 6374. The settings on record: Mannheimia haemolytica strain MH 6374, broth-microdilution; unit assumed. In short, it runs like this:
as §1

Experiment [3] concerns Mannheimia haemolytica MH 10720 (154, BRD field isolate). Description: MIC, broth-microdilution (CLSI VET01-A4), strain MH 10720. The settings on record: Mannheimia haemolytica strain MH 10720, broth-microdilution; unit assumed. In short, it runs like this: as §1
The test system of experiment [4] is Mannheimia haemolytica MH 12587 (1071, BRD field isolate, macrolide-resistance: erm+, E+). Description: MIC, broth-microdilution (CLSI VET01-A4), strain MH 12587. The following applies: Mannheimia haemolytica strain MH 12587, broth-microdilution; unit assumed. An outline of the steps:
as §1

Experiment [5] concerns Mannheimia haemolytica MH 13065 (XB0446-6003.9, BRD field isolate). Briefly: MIC, broth-microdilution (CLSI VET01-A4), strain MH 13065. The settings on record: Mannheimia haemolytica strain MH 13065, broth-microdilution; unit assumed. An outline of the steps:
as §1

Experiment [6] concerns Mannheimia haemolytica MH 13093 (XB0472-6014.1, BRD field isolate). Briefly: MIC, broth-microdilution (CLSI VET01-A4), strain MH 13093. The following applies: Mannheimia haemolytica strain MH 13093, broth-microdilution; unit assumed. In short, it runs like this:
as §1

The test system of experiment [7] is Pasteurella multocida PM 6267 (P 2225 (L386), reference strain, mouse infection strain). Briefly: MIC, broth-microdilution (CLSI VET01-A4), strain PM 6267. The settings on record: Pasteurella multocida strain PM 6267, broth-microdilution; unit assumed. An outline of the steps: as §1
The test system of experiment [8] is Pasteurella multocida PM 6391 (ATCC 43137, reference strain). Briefly: MIC, broth-microdilution (CLSI VET01-A4), strain PM 6391. The settings on record: Pasteurella multocida strain PM 6391, broth-microdilution; unit assumed. In short, it runs like this: as §1
Experiment [9] concerns Pasteurella multocida PM 10775 (080130003051, BRD field isolate). Description: MIC, broth-microdilution (CLSI VET01-A4), strain PM 10775. The following applies: Pasteurella multocida strain PM 10775, broth-microdilution; unit assumed. An outline of the steps: as §1
The subject of experiment [10] is Pasteurella multocida PM 12080 (IV102277-0093, BRD field isolate). Briefly: MIC, broth-microdilution (CLSI VET01-A4), strain PM 12080. The following applies: Pasteurella multocida strain PM 12080, broth-microdilution; unit assumed. An outline of the steps:
as §1

As for `C=CCNCc1ccc(C#Cc2ccc(C(=O)NC(C(=O)NO)C(C)(C)[N+](=O)[O-])cc2)cc1` (centres unmarked) [Compound 280], the MIC MH 6357 in experiment [1] stood at 1.6 µg/mL (≈ 3.55 µM). In [2], this compound yielded an MIC MH 6374 of 0.8 µg/mL (≈ 1.78 µM). The same compound had an MIC MH 10720 in experiment [3] of at most 0.1 µg/mL. The same compound yielded an MIC MH 12587 in experiment [4] of 3.1 µg/mL (≈ 6.88 µM). The MIC MH 13065 in [5] is 1.6 µg/mL (≈ 3.55 µM). Also, the MIC MH 13093 in [6] worked out at 1.6 µg/mL (≈ 3.55 µM). For the same compound, in experiment [7], the MIC PM 6267 is at most 0.1 µg/mL. In experiment [8], the MIC PM 6391 is 0.4 µg/mL (≈ 0.888 µM). The MIC PM 10775 in experiment [9] was at most 0.1 µg/mL. Also, the MIC PM 12080 in [10] worked out at 0.2 µg/mL (≈ 0.444 µM).
As for `CC(C)(C(NC(=O)c1ccc(C#Cc2ccc(CNCc3ccccn3)cc2)cc1)C(=O)NO)[N+](=O)[O-]` (centres unmarked) [Compound 282], the MIC MH 6357 in experiment [1] stood at 0.8 µg/mL (≈ 1.6 µM). Also, in experiment [2], the MIC MH 6374 is 0.8 µg/mL (≈ 1.6 µM). The compound also displayed an MIC MH 10720 in [3] of at most 0.1 µg/mL. Moreover, the MIC MH 12587 in experiment [4] came to 1.6 µg/mL (≈ 3.19 µM). Moreover, the MIC MH 13065 in experiment [5] is 0.4 µg/mL (≈ 0.798 µM). The MIC MH 13093 in [6] came out at 1.6 µg/mL (≈ 3.19 µM). Further, the MIC PM 6267 in experiment [7] was determined as 0.8 µg/mL (≈ 1.6 µM). For the same compound, in experiment [8], the MIC PM 6391 worked out at 0.4 µg/mL (≈ 0.798 µM). The MIC PM 10775 in experiment [9] came to 0.4 µg/mL (≈ 0.798 µM). In [10], the MIC PM 12080 came out at 0.2 µg/mL (≈ 0.399 µM).
With `Cc1ccc(CNCc2ccc(C#Cc3ccc(C(=O)NC(C(=O)NO)C(C)(C)[N+](=O)[O-])cc3)cc2)cc1` (centres unmarked) [Compound 283], the MIC MH 6357 in experiment [1] turned out to be 3.1 µg/mL (≈ 6.02 µM). This compound registered an MIC MH 6374 in experiment [2] of 3.1 µg/mL (≈ 6.02 µM). The compound further had an MIC MH 10720 in experiment [3] of 0.2 µg/mL (≈ 0.389 µM). The compound also came in with an MIC MH 12587 in [4] of 6.3 µg/mL (≈ 12.2 µM). Moreover, in experiment [5], the MIC MH 13065 worked out at 1.6 µg/mL (≈ 3.11 µM). In addition, the MIC MH 13093 in experiment [6] turned out to be 3.1 µg/mL (≈ 6.02 µM). In addition, the MIC PM 6267 in experiment [7] amounted to 3.1 µg/mL (≈ 6.02 µM). The compound also had an MIC PM 6391 in [8] of 1.6 µg/mL (≈ 3.11 µM). In experiment [9], the MIC PM 10775 was 0.2 µg/mL (≈ 0.389 µM). Further, in experiment [10], the MIC PM 12080 was found to be 0.8 µg/mL (≈ 1.55 µM).
In [1], `CC(C)(C(NC(=O)c1ccc(C#Cc2ccc(CNCc3ccc(F)cc3)cc2)cc1)C(=O)NO)[N+](=O)[O-]` (centres unmarked) [Compound 284] yielded an MIC MH 6357 of 0.4 µg/mL (≈ 0.771 µM). For the same compound, the MIC MH 6374 in experiment [2] was 0.8 µg/mL (≈ 1.54 µM). Also, in experiment [3], the MIC MH 10720 was at most 0.1 µg/mL. The compound also had an MIC MH 12587 in experiment [4] of 1.6 µg/mL (≈ 3.09 µM). This compound also gave an MIC MH 13065 in experiment [5] of 0.2 µg/mL (≈ 0.386 µM). For the same compound, the MIC MH 13093 in [6] came out at 0.8 µg/mL (≈ 1.54 µM). For the same compound, in experiment [7], the MIC PM 6267 was 0.8 µg/mL (≈ 1.54 µM). In experiment [8], this compound returned an MIC PM 6391 of 0.4 µg/mL (≈ 0.771 µM). Further, the MIC PM 10775 in experiment [9] was at most 0.1 µg/mL. Besides, in experiment [10], the MIC PM 12080 was at most 0.1 µg/mL.
Take `COCCCNCc1ccc(C#Cc2ccc(C(=O)NC(C(=O)NO)C(C)(C)[N+](=O)[O-])cc2)cc1` (centres unmarked) [Compound 285]: the MIC MH 6357 in [1] was 1.6 µg/mL (≈ 3.32 µM). The same compound yielded an MIC MH 6374 in experiment [2] of 3.1 µg/mL (≈ 6.42 µM). In addition, the MIC MH 10720 in [3] is at most 0.1 µg/mL. The compound further showed an MIC MH 12587 in experiment [4] of 6.3 µg/mL (≈ 13.1 µM). The same compound displayed an MIC MH 13065 in experiment [5] of 1.6 µg/mL (≈ 3.32 µM). In addition, the MIC MH 13093 in [6] amounted to 3.1 µg/mL (≈ 6.42 µM). For the same compound, the MIC PM 6267 in experiment [7] came out at 3.1 µg/mL (≈ 6.42 µM). In addition, the MIC PM 6391 in experiment [8] was determined as 1.6 µg/mL (≈ 3.32 µM). The same compound displayed an MIC PM 10775 in experiment [9] of at most 0.1 µg/mL. The compound further registered an MIC PM 12080 in experiment [10] of 0.8 µg/mL (≈ 1.66 µM).
The compound `CC(C)(C(NC(=O)c1ccc(C#Cc2ccc(CNCc3cccnc3)cc2)cc1)C(=O)NO)[N+](=O)[O-]` (centres unmarked) [Compound 286] returned an MIC MH 6357 in experiment [1] of 0.4 µg/mL (≈ 0.798 µM). For the same compound, the MIC MH 6374 in [2] was 0.8 µg/mL (≈ 1.6 µM). For the same compound, the MIC MH 10720 in [3] is at most 0.1 µg/mL. In addition, in experiment [4], the MIC MH 12587 came to 1.6 µg/mL (≈ 3.19 µM). Besides, the MIC MH 13065 in experiment [5] turned out to be 0.4 µg/mL (≈ 0.798 µM). This compound displayed an MIC MH 13093 in experiment [6] of 0.8 µg/mL (≈ 1.6 µM). The compound further showed an MIC PM 6267 in [7] of 0.8 µg/mL (≈ 1.6 µM). Moreover, the MIC PM 6391 in experiment [8] amounted to 0.8 µg/mL (≈ 1.6 µM). In addition, in [9], the MIC PM 10775 is at most 0.1 µg/mL. This compound gave an MIC PM 12080 in [10] of at most 0.1 µg/mL.
As to `CC(C)(C(NC(=O)c1ccc(C#Cc2ccc(CNCc3ccco3)cc2)cc1)C(=O)NO)[N+](=O)[O-]` (centres unmarked) [Compound 287], in experiment [1], the MIC MH 6357 was 0.4 µg/mL (≈ 0.815 µM). Also, the MIC MH 6374 in experiment [2] was determined as 0.8 µg/mL (≈ 1.63 µM). This compound gave an MIC MH 10720 in experiment [3] of at most 0.1 µg/mL. Moreover, the MIC MH 12587 in experiment [4] came out at 1.6 µg/mL (≈ 3.26 µM). In experiment [5], this compound had an MIC MH 13065 of 0.8 µg/mL (≈ 1.63 µM). This compound also yielded an MIC MH 13093 in experiment [6] of 0.8 µg/mL (≈ 1.63 µM). In experiment [7], the MIC PM 6267 came to 0.8 µg/mL (≈ 1.63 µM). Moreover, the MIC PM 6391 in [8] turned out to be 0.4 µg/mL (≈ 0.815 µM). Further, the MIC PM 10775 in [9] was at most 0.1 µg/mL. This compound gave an MIC PM 12080 in experiment [10] of at most 0.1 µg/mL.
`CC(C)(C(NC(=O)c1ccc(C#Cc2ccc(CNCC(F)(F)F)cc2)cc1)C(=O)NO)[N+](=O)[O-]` (centres unmarked) [Compound 288] gave an MIC MH 6357 in experiment [1] of 0.4 µg/mL (≈ 0.812 µM). The MIC MH 6374 in experiment [2] worked out at 0.8 µg/mL (≈ 1.62 µM). The MIC MH 10720 in [3] is at most 0.1 µg/mL. The MIC MH 12587 in [4] was determined as 0.8 µg/mL (≈ 1.62 µM). This compound also showed an MIC MH 13065 in experiment [5] of 0.4 µg/mL (≈ 0.812 µM). This compound also gave an MIC MH 13093 in experiment [6] of 0.8 µg/mL (≈ 1.62 µM). In [7], this compound displayed an MIC PM 6267 of 0.4 µg/mL (≈ 0.812 µM). Besides, in experiment [8], the MIC PM 6391 was at most 0.1 µg/mL. In experiment [9], this compound gave an MIC PM 10775 of at most 0.1 µg/mL. The compound further had an MIC PM 12080 in [10] of at most 0.1 µg/mL.
